This assay addresses T1, AHR (Homo sapiens, UniProt P35869).
T1 construct: other cell line with a DRE-luciferase reporter stably transfected; endogenous in cells; host or cells: HepG2 AhR-Lucia reporter cells
T1 sequence (P35869 11-848): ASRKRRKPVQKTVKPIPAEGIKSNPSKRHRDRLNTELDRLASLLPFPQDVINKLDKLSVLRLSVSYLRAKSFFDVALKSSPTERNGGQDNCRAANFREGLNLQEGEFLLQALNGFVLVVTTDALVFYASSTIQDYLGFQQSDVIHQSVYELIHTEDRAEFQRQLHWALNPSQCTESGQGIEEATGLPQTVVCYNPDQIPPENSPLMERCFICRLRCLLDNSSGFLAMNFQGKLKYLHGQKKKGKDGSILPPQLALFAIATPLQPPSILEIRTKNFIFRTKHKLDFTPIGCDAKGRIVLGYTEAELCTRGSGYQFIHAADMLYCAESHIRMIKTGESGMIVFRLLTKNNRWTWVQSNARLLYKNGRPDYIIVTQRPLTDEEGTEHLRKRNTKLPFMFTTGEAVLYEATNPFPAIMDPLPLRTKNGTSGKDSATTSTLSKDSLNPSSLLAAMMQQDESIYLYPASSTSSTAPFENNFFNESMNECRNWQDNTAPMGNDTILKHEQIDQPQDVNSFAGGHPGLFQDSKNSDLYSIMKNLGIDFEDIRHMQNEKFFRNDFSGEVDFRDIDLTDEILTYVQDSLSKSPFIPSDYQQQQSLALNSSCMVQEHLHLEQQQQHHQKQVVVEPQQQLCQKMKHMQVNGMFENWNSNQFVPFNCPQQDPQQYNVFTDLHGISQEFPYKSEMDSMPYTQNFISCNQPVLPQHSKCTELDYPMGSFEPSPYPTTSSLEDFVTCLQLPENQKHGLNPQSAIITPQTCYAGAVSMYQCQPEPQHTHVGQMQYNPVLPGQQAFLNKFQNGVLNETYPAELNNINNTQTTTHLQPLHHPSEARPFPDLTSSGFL
The experiment in a line: DRE-Luciferase Reporter Assay, HepG2 AhR-Lucia reporter cells. It is filed as cell-based. The note with it: with AHR activating ligand at EC50, read-out: HepG2-Luc IC50. An excerpt: AHR binds to Dioxin Responsive Elements (DRE) upstream of genes that it activates. One measure of AHR activity is activation of a reporter gene, such as luciferase, downstream of one or multiple DRE elements. Luciferase activity will reflect activation and inhibition of AHR in the cells expressing his reporter. 20000 Human HepG2 liver carcinoma—AhR-Lucia reporter cells or Human HT29 colon adenocarcinoma—AhR reporter cells or other cell line with a DRE-luciferase reporter stably transfected were plated in Eagle's Minimal Essential Medium, 10% heat-inactivated FBS, 1× non-essential amino acids Pen-Strep (10,000 U/mL) and Normocin (100 ug/mL) in plates (96-well, 384-well or other plates) and incubated overnight at 37° C. in a CO2 incubator and treated with and without AhR antagonists at a log dilution starting at 100 uM.
After 1 hr that cells were plated an AHR activating ligand, such as TCDD, kynurenine, ITE (2-(1H-indole-3-ylcarbonyl)-4-thiazolecarboxylic methyl ester), VAF347, BNF (beta-naphthoflavone), FICZ (6-formylindolo(3,2-b) carbazole) or other AHR ligands at their specific EC50 concentration, were added to the cells with or without AHR antagonist.
Cells were incubated for 24 or 48 hours or another time point and then, supernatant was analyzed for determination of luciferase activity as a read-out of the AHR activation or inhibition. Luciferase was measured with the commercial kit QUANTI-Luc™ assay solution kit from Invivogen following the manufacturer's instructions.
The level of luciferase with only agonist ligand added was the maximum signal while the luciferase with […] was the minimum signal. IC50 values were determined as the concentration which inhibits half of the luciferase activity.
In general terms: Reporter assays use an easily measured gene product as a stand-in for the process of interest.
What is called IC50 is the point on the concentration scale where inhibition reaches its midpoint. In the case of `O=c1c2cc(-c3ccc(OC(F)(F)F)cc3)nc(-c3cccnc3)c2ncn1CC(O)C(F)(F)F` (stereo not shown) [Compound 14], the half-inhibitory concentration (IC50) is below 0.1 µM.
For `Cn1cc(-c2nc(-c3ccc(Cl)cc3)cc3c(=O)n([C@@H]4COC[C@H]4O)cnc23)cn1` [Compound 153, 6-(4-Chlorophenyl)-3-((3R,4S)-4-hydroxytetrahydrofuran-3-yl)-8-(1-methyl-1H-pyrazol-4-yl)pyrido[3,4-d]pyrimidin-4(3H)-one], the concentration for half-maximal inhibition (IC50) was below 0.1 µM.
For `CCN(CC)c1nc(-c2ccc(C(F)(F)F)nc2)cc2c(=O)n([C@@H](C)CO)cnc12` [Compound 174, (S)-8-(diethylamino)-3-(1-hydroxypropan-2-yl)-6-(6-(trifluoromethyl)pyridin-3-yl)pyrido[3,4-d]pyrimidin-4(3H)-one], the IC50 is below 0.1 µM.
On to `C[C@@H](CO)n1cnc2c(-c3ccncc3)nc(-c3ccc(C(F)(F)F)nc3)cc2c1=O` [Compound 4], for which the 50% inhibitory concentration (IC50) is 0.1 to 0.5 µM.
As to `C[C@@H](CO)n1cnc2c(-c3cccnc3)nc(-c3cnsc3)cc2c1=O` [Compound 53], the IC50 was 0.1 to 0.5 µM.
In the case of `CC(C)[C@@H](CO)n1cnc2c(-c3cccc(F)c3)nc(-c3ccc(Cl)cc3)cc2c1=O` [Compound 90] it was below 0.1 µM.
In the case of `Cn1cc(-c2nc(-c3ccc(C(F)(F)F)nc3)cc3c(=O)n([C@@H]4COC[C@@H]4O)cnc23)cn1` [Compound 130, 3-((3R,4R)-4-hydroxytetrahydrofuran-3-yl)-8-(1-methyl-1H-pyrazol-4-yl)-6-(6-(trifluoromethyl)pyridin-3-yl)pyrido[3,4-d]pyrimidin-4(3H)-one], the IC50 was below 0.1 µM.
On to `C[C@@H](CO)n1cnc2c(-n3cccn3)nc(-c3ccc(Cl)cc3)cc2c1=O` [Compound 166, (S)-6-(4-chlorophenyl)-3-(1-hydroxypropan-2-yl)-8-(1H-pyrazol-1-yl)pyrido[3,4-d]pyrimidin-4(3H)-one], for which the concentration for half-maximal inhibition (IC50) is below 0.1 µM.
`O=c1c2cc(-c3ccc(Cl)cc3)nc(-c3cccnc3)c2ncn1C1COCC1O` (racemic) [Compound 32]: the 50% inhibitory concentration (IC50) is below 0.1 µM.
In the case of `C[C@@H](CO)n1cnc2c(-c3cccnc3)nc(N3CCCCC3)cc2c1=O` [Compound 100] it was above 0.5 µM; in that of `O=c1c2cc(-c3ccc(C4CC4)nc3)nc(-c3cccnc3)c2ncn1C[C@@H](O)C(F)(F)F` [Compound 121, (R)-6-(6-cyclopropylpyridin-3-yl)-8-(pyridin-3-yl)-3-(3,3,3-trifluoro-2-hydroxypropyl)pyrido[3,4-d]pyrimidin-4(3H)-one], below 0.1 µM; in that of `C[C@@H](n1cnc2c(-c3cccc(F)c3)nc(-c3ccc(Cl)cc3)cc2c1=O)C(C)(C)O` [Compound 39], below 0.1 µM.
For `Cn1cc(-c2nc(-c3ccc(Cl)cc3)cc3c(=O)n(CC(O)C(F)(F)F)cnc23)cn1` (stereo not shown) [Compound 15], the IC50 is below 0.1 µM.
In the case of `C[C@@H](CO)n1cnc2c(-c3cnn(C)c3)nc(-c3cccnc3)cc2c1=O` [Compound 76] it was 0.1 to 0.5 µM; in that of `COC(=O)c1ccc(-c2cc3c(=O)n([C@@H](C)CO)cnc3c(-c3cccnc3)n2)cn1` [Compound 52], above 0.5 µM; in that of `C[C@@H](CO)n1cnc2c(-c3ccc(=O)n(C)c3)nc(-c3ccc(Cl)cc3)cc2c1=O` [Compound 73], above 0.5 µM.
On to `C[C@@H](CO)n1cnc2c(N3CCCC3)nc(-c3ccc(C(F)(F)F)nc3)cc2c1=O` [Compound 176, (S)-3-(1-hydroxypropan-2-yl)-8-(pyrrolidin-1-yl)-6-(6-(trifluoromethyl)pyridin-3-yl)pyrido[3,4-d]pyrimidin-4(3H)-one], for which the IC50 was below 0.1 µM.
Turning to `C[C@@H](CO)n1cnc2c(-c3cccnc3)nc(Cl)cc2c1=O` [Compound 11, (S)-6-chloro-3-(1-hydroxypropan-2-yl)-8-(pyridin-3-yl)pyrido[3,4-d]pyrimidin-4(3H)-one], the half-maximal inhibitory concentration (IC50) is above 0.5 µM.
With `O=c1c2cc(-c3ccc(C(F)(F)F)nc3)nc(-c3cccnc3)c2ncn1C1CCS(=O)(=O)C1` (stereo not shown) [Compound 106, 3-(1,1-dioxidotetrahydrothiophen-3-yl)-8-(pyridin-3-yl)-6-(6-(trifluoromethyl)pyridin-3-yl)pyrido[3,4-d]pyrimidin-4(3H)-one], the IC50 was below 0.1 µM.
The result for `CC(C)(O)Cn1cnc2c(-c3cn[nH]c3)nc(-c3ccc(C(F)(F)F)cn3)cc2c1=O` [Compound 159, 3-(2-hydroxy-2-methylpropyl)-8-(1H-pyrazol-4-yl)-6-(5-(trifluoromethyl)pyridin-2-yl)pyrido[3,4-d]pyrimidin-4(3H)-one] reads below 0.1 µM.
In the case of `Cn1cc(-c2nc(-c3ccc(C(F)(F)F)cn3)cc3c(=O)n([C@@H]4COC[C@@H]4O)cnc23)cn1` [Compound 149, 3-((3R,4R)-4-hydroxytetrahydrofuran-3-yl)-8-(1-methyl-1H-pyrazol-4-yl)-6-(5-(trifluoromethyl)pyridin-2-yl)pyrido[3,4-d]pyrimidin-4(3H)-one], the IC50 was below 0.1 µM.
In the case of `CC(C)(O)Cn1cnc2c(N3CCCCC3)nc(-c3ccc(C(F)(F)F)nc3)cc2c1=O` [Compound 179, 3-(2-hydroxy-2-methylpropyl)-8-(piperidin-1-yl)-6-(6-(trifluoromethyl)pyridin-3-yl)pyrido[3,4-d]pyrimidin-4(3H)-one], the IC50 is below 0.1 µM.
The result for `O=c1c2cc(-c3ccc(Cl)cc3)nc(-c3cccnc3)c2ncn1C1COCC1O` (racemic) [Compound 29] reads below 0.1 µM; that for `O=c1c2cc(-c3ccc(C(F)(F)F)nc3)nc(-c3cccnc3)c2ncn1-c1ccccc1` [Compound 133, 3-phenyl-8-(pyridin-3-yl)-6-(6-(trifluoromethyl)pyridin-3-yl)pyrido[3,4-d]pyrimidin-4(3H)-one], below 0.1 µM.
In the case of `C[C@@H](CO)n1cnc2c(-c3cncc(F)c3)nc(-c3ccc(C(F)(F)F)cc3)cc2c1=O` [Compound 5] it was below 0.1 µM.
As for `CN1CC(O)C(n2cnc3c(-c4cccnc4)nc(-c4ccc(Cl)cc4)cc3c2=O)C1` (stereo not shown) [Compound 128, 6-(4-chlorophenyl)-3-(4-hydroxy-1-methylpyrrolidin-3-yl)-8-(pyridin-3-yl)pyrido[3,4-d]pyrimidin-4(3H)-one], the IC50 is below 0.1 µM.
Take `C[C@@H](CO)n1cnc2c(-c3cnn(C)c3)nc(-c3cnc(C(F)(F)F)s3)cc2c1=O` [Compound 168, (S)-3-(1-hydroxypropan-2-yl)-8-(1-methyl-1H-pyrazol-4-yl)-6-(2-(trifluoromethyl)thiazol-5-yl)pyrido[3,4-d]pyrimidin-4(3H)-one]: the IC50 is below 0.1 µM.
Take `CC(C)(O)Cn1cnc2c(-c3cccnc3)nc(-c3cnc(C(F)(F)F)nc3)cc2c1=O` [Compound 96]: the IC50 was below 0.1 µM.
`Cn1cc(-c2nc(-c3ccc(C(F)(F)F)cn3)cc3c(=O)n(C[C@@H](O)C(F)(F)F)cnc23)cn1` [Compound 146]: the half-maximal inhibitory concentration (IC50) is below 0.1 µM.
For the compound `Cc1cnc(-c2cc3c(=O)n([C@@H](C)CO)cnc3c(-c3cccnc3)n2)nc1` [Compound 187, (S)-3-(1-hydroxypropan-2-yl)-6-(5-methylpyrimidin-2-yl)-8-(pyridin-3-yl)pyrido[3,4-d]pyrimidin-4(3H)-one], the IC50 is above 0.5 µM.
The result for `C[C@@H](CO)n1cnc2c(-c3cccnc3)nc(C3CCCCC3)cc2c1=O` [Compound 181, (S)-6-cyclohexyl-3-(1-hydroxypropan-2-yl)-8-(pyridin-3-yl)pyrido[3,4-d]pyrimidin-4(3H)-one] reads above 0.5 µM.
Take `CC(C)[C@@H](CO)n1cnc2c(-c3cc(F)cc(F)c3)nc(-c3cc(F)cc(F)c3)cc2c1=O` [Compound 35]: the concentration for half-maximal inhibition (IC50) is below 0.1 µM.
Take `C[C@@H](CO)n1cnc2c(-c3cccnc3)nc(-c3cccnc3)cc2c1=O` [Compound 20]: the half-maximal inhibitory concentration (IC50) is 0.1 to 0.5 µM.
In the case of `O=c1c2cc(-c3ccc(Cl)cc3)nc(-c3cccc(F)c3)c2ncn1C[C@@H](O)C(F)(F)F` (stereo in doubt) [Compound 42] it was below 0.1 µM.

The values above are taken from patent publication US20230295152A1 (SENDA BIOSCIENCES, INC., priority 2019, published 2023).
